Literature values as cited in patent publication US12150952B2, “Formulation for the use in the simultaneous treatment of coccidial infections and iron deficiencies” (Elanco Animal Health GmbH, priority 2018, dated 2024).
Like-named read-outs stand apart in the source and are kept apart here.

Tests used:
[1] = value to be understood as stated ±1
[2] = tested on: Isospora suis; details: coccidiosis

Compound	HLB [1]	HLB ([1]; listed as Sodium Docusate)	preventing the disease in experimentally infected piglets [2]
CCCCC(CC)COC(=O)CC(C(=O)OCC(CC)CCCC)S(=O)(=O)[O-].[Na+] (stereo not drawn) [Sodium docusate]	about 10	10	–
CCCc1ncc(C[n+]2ccccc2C)c(N)n1 [amprolium]	–	–	not been successful in preventing the disease
O=C1OCCN1/N=C/c1ccc([N+](=O)[O-])o1 [furazolidon]	–	–	not been successful in preventing the disease
CC[C@@]1([C@@H]2O[C@@H]([C@H]3O[C@@](O)(CO)[C@H](C)C[C@@H]3C)C[C@@H]2C)CC[C@H]([C@]2(C)CC[C@]3(C[C@H](O)[C@@H](C)[C@@H]([C@@H](C)[C@@H](OC)[C@H](C)C(=O)O)O3)O2)O1 [monensin]	–	–	not been successful in preventing the disease
Sorbitan Monooleate	about 4.6	–	–
